Reference: a melting point compilation (Tetko et al.; mined from patent text by program, amines drawn as free bases though some values may be those of a salt)

SMILES	melting point [°C]
O=C(Nc1n[nH]c(-c2ccc(F)cc2)c1-c1ccncc1)C(F)(F)F	260 to 265
Cc1ccccc1NNC1=NCCS1	126 to 127
O=C(NC1CCN(c2ccccc2)C1)c1ccc([N+](=O)[O-])cc1 (centres undefined)	153 to 155
CN1CCC(Oc2ccc(N)cc2)(c2ccccc2)CC1	174 to 175
Cc1cc(C)c(Nc2nc(C)ncc2S(=O)(=O)c2ccc(C#N)cc2)c(C)c1	258 to 260
Cc1[nH]c2ccc(F)cc2c1C(=O)Nc1ccc(Oc2ccccc2)c(C#N)c1	237
CCOC(=O)c1c(C)cc(NC(=O)CCl)c(C(=O)O)c1C	124 to 125
Cc1oc(-c2ccco2)nc1COc1ccc(COc2nn(Cc3ccc(OCc4nc(-c5ccco5)oc4C)cc3)cc2C(=O)O)cc1	144 to 145
COc1ccc(CCN2CCC(C(=O)c3nc4ccccc4s3)CC2)cc1	119 to 120
CN(C)c1ccc(C2OCCN2CCNc2ccc(NCCN3CCOC3c3ccc(N(C)C)cc3)c3c2C(=O)c2c(O)ccc(O)c2C3=O)cc1 (centres undefined)	150 to 154
CCSN(C)C(=O)Nc1ccc(OC)c(Cl)c1	60
COC(=O)c1c(OC(C)=O)cc2cc(Br)ccc2c1C	78
O=c1n(CC2CN(Cc3ccccc3)CCO2)c2ccccc2n1-c1ccccc1 (centres undefined)	90
COc1ccc(Cl)cc1C(=O)NCCc1ccc(-c2ccc(OC(C)C(=O)O)cc2)cc1 (centres undefined)	145
CCC1(C)CC(C#N)(NC(=O)Nc2ccccc2)C(C)C(C)(CC)N1 (centres undefined)	167 to 170
CCOC(=O)C1=Cc2cccc(S(N)(=O)=O)c2OCC1	197 to 198
COC(=O)CCCc1cc2nc(Cl)ccc2n1S(=O)(=O)c1ccc(C(C)(C)C)cc1	107
O=C1NCCCN1N=Cc1ccccc1	190
Cc1cc(O)ccc1NC(=O)OC(C)(C)C	143 to 144
COc1cc(C2=C(c3c[nH]c4cccnc34)C(=O)NC2=O)cc(OC)c1OC	274 to 275
C[Si](C)(C)OC1(C#N)CCOc2c(Cl)cc(-c3ccccc3)cc21 (centres undefined)	99 to 100

SMILES	melting point [°C]
C#Cc1c(Cl)cccc1Cl	97 to 98
Cc1nnc(C2CN3CCC2CC3)o1 (centres undefined)	147 to 148
Cc1cc(N(C)Cc2ccc(-c3ccc(C(F)(F)F)cc3)nc2)ccc1OCC(=O)O	199
N#Cc1c(Cl)cncc1Cl	117 to 118
CCCC(=NOCC)C1=C(O)CC(C2(C)CC(C(C)C)=NO2)CC1=O (centres undefined)	85
Cc1cc(O)ccc1-c1ccc(C=NO)c(Cl)c1	169 to 171
Cc1ccc(S(=O)(=O)CC2COc3ccccc3O2)cc1 (single isomer, unassigned; (+))	60
CC1=C(C(=O)NC(C)(C)C)C(c2ccccc2Cl)C(C(=O)OC(C)C)=C(COCCCc2nc3ccccc3n2C)N1 (centres undefined)	216
O=c1c(O)c(-c2ccccc2)oc2cc(O)ccc12	128
CSc1nc(-c2cccnc2)n(-c2ccc(C)c(C)c2)c(=O)c1C#N	> 250
Cc1ccc(S(=O)(=O)N2[C@@H](Cc3nc(C4CC4)no3)CC[C@H]2c2ccc(F)cc2)cc1 (racemic)	102
CN1Cc2cc(C(c3ccccc3)n3ccnc3)ccc2NC1=O (centres undefined)	174
COc1cc(C=C2C(=O)NC(=O)N2C)cc(OC)c1O	194 to 196
CC12CCC(Oc3c(F)c(F)c(C(F)(F)F)c(F)c3F)=CC1=CCC1C2CCC2(C)C(OS(=O)(=O)C(F)(F)F)=CCC12 (centres undefined)	106 to 107
C=CC(=O)OCc1c(Br)c(Br)c(Br)c(COC(=O)C=C)c1Br	105 to 108
O=C(CCc1ccc(Cl)cc1Cl)NC1N=C(c2ccccc2)c2ccccc2-n2ccnc21 (centres undefined)	183 to 184
Cc1nnsc1CS(=O)(=O)c1ccccc1	118
COC1(C)CCc2ccc(O)cc2O1 (centres undefined)	107 to 108
COS(=O)(=O)c1ccc(Cl)cc1NC(=O)/C=C/c1ccc2ccccc2c1	178 to 180
COc1ccc(C2CCc3c(OC(C)=O)cc(OC(C)=O)cc3O2)cc1OC(C)=O (centres undefined)	106 to 107
CCOC(=O)c1cn(-c2ccc([N+](=O)[O-])cn2)cn1	212 to 214

Other lines, results leading:

melting point [°C]	SMILES
192 to 195	O=C(NC1CCCC1)c1ccc(CCN2CC=C(c3c[nH]c(-c4ccc(F)cc4)c3-c3ccncc3)CC2)cc1
248 to 250	CCc1cc(Cl)c2c(=O)cc(C(=O)O)[nH]c2c1
193 to 195	CC(C)C[C@H](NC(=O)c1ccc2c(c1)Nc1ccccc1S2)C(=O)N[C@H]1CCOC1OC(=O)c1ccccc1 (some centres undefined)
126 to 128	O=C(Nc1ccc(C(=O)Oc2ccccc2)c(Cl)c1)c1ccccc1
213	CCOc1cc(-c2cc(C(F)F)n3ncc(C(=O)Nc4cccc(S(=O)(=O)NC5CC5)c4)c3n2)ccc1C(F)(F)F
216 to 217	COC(=O)c1cn(-c2ccc(OC(C)=O)cc2C)c(C=O)cc1=O
71.8 to 72.5	CCCCCCC(O)CCCCCCCCCCCOCC(O)CNCCO (centres undefined)
103 to 104	CCOP(=O)(/C=C/c1cn(-c2ccccc2)nc1OCc1ccc(OCc2cn(-c3ccccn3)nc2C)c(OC)c1)OCC
289 to 290	Cc1[nH]cnc1C=C1CC2CCCn3c2c(c2ccccc23)C1=O (centres undefined)
210	COc1ccc(CCNc2nc(C)c(CCO)c(=O)n2C)cc1
161 to 163	Cc1ccc2c(c1)Sc1ccc(Cl)cc1CC2N1CCN(CCN2CCOC2=O)CC1 (centres undefined)
233 to 235	Fc1ccc(-c2nn3c(c2-c2ccncc2)NNCC3)cc1
133 to 134	Cc1cc(C(O)CS(C)(=O)=O)cc(C)c1N(C)C (centres undefined)
275 to 278	CCOC(=O)c1cnc2ccc(OCC)nc2c1O
79 to 82	Cc1nc2ccc3c(c2o1)OC(CNC1CCC(c2c[nH]c4ccc(F)cc24)C1)CO3 (centres undefined)
195 to 197	O=c1c2ccccc2nc(-c2cc(-c3ccncc3)c(N3CCOCC3)s2)n1-c1ccc(Cl)cc1
150 to 151	O=C(c1cccs1)c1cnn2c(-c3ccc(F)c(N(C(=O)c4ccccc4Cl)C(=O)c4ccccc4Cl)c3)ccnc12
128	CC1(C)CC(n2cncc2C(=O)OC2CCCCC2)c2ccccc2O1 (centres undefined)
175 to 177	CS(=O)(=O)c1ccc(-c2cnn(-c3ccc(F)cc3)c(=O)c2Cc2ccc(F)cc2)cc1
170 to 173	Cn1nc(C(F)(F)F)cc1O
197 to 199	CCOC(=O)c1ccc(C(=O)Nc2ccc3c(c2)C(C)(C)CC(=O)N3C)cc1
64 to 66	O=C(Cn1nnnc1-c1ccc2ccccc2c1)OCCO
64 to 65	CCCN(CCC)C(=O)n1ccc(S(=O)(=O)c2c(C)cc(C)cc2C)n1
188 to 190	CN(c1n[nH]c2ncnc(Nc3cccc(Cl)c3)c12)C1CCCCC1
127	COC(=O)c1cc(C(=O)c2cccc(Cl)c2)n(C)c1
189 to 190	CO/C(=C\C=C\c1cc2ccccc2[nH]1)C(=O)O

melting point [°C]	SMILES
157 to 159	c1ccc(-c2nn3c(c2-c2ccnc4cc(OCCN5CCOCC5)ccc24)CCCCC3)nc1
103 to 104	COCOc1cccc(-c2ccc(-c3ccc(C(=O)O)cc3)cc2-c2ccc3c(c2)C(C)(C)CCC3(C)C)c1
220 to 222	Cc1c(NC(=O)c2ccc(-c3ccc(F)cc3)cc2)ccc2cc(CN3CCCC3)cnc12
124 to 125	CNS(=O)(=O)Cc1ccc(NN=CCCC#N)cc1
125 to 130	Cn1ccnc1Sc1ccc(Nc2c(C#N)cnc3cc(N4CCC(N5CCCC5)CC4)ccc23)cc1Cl
146 to 147	CC(C)OC(=O)c1nc(Cl)c(-c2c(F)cc(F)cc2F)c(N[C@@H](C)C(F)(F)F)n1
284 to 287	Cc1nnc(-c2sc(N3CCN(Cc4ccccc4)C3=O)nc2C)[nH]1
266 to 268	O=C1CCC(N2Cc3cc(CNC(=O)c4ccccc4)ccc3C2=O)C(=O)N1 (centres undefined)
> 260	COC(=O)c1ccc(C=Cc2cnc3nc(NC(=O)C(C)(C)C)nc(O)c3c2)[nH]1
176	O=C1CCOc2c1ccc(O)c2Cc1ccccc1
141 to 142	Cc1cc2c(-c3ccccc3)nc(N3CCN(CC(=O)c4ccc(F)cc4)CC3)nc2s1
161 to 163	CN(C(=O)OC(C)(C)C)c1cc(Oc2ccc(-c3nnn(C(c4ccccc4)(c4ccccc4)c4ccccc4)n3)cc2)ccc1[N+](=O)[O-]
140 to 143	CN(C)c1ccccc1CS(=O)c1nccn1-c1ccc(N)cn1 (centres undefined)
131 to 132	C[C@@H](N1CCN(c2ccc(OCC(F)(F)F)cc2)C1=O)[C@@]1(c2ccc(F)cc2F)CO1
156 to 158	COc1cc2cc[nH]c2cc1OCCCN1CCC(c2noc3cc(F)ccc23)CC1
187 to 188	O=C1Nc2cccnc2Nc2ccc(Br)cc21
> 250	O=C1Nc2cc(C(F)(F)F)cnc2C1C(=O)OCc1ccccc1 (centres undefined)
121 to 122	Nc1cccc2c3c([nH]c12)C=C(NC(=O)c1ccc(F)cc1)C=CC3
176 to 177	CC(=O)c1ccc(N2CCN(c3ccncc3)CC2)cc1
193 to 194	O=C(O)c1ccc(OCCCON=Cc2cn(Cc3ccccc3)c3ccccc23)c(-c2ccc(C(F)(F)F)cc2)c1
240 to 243	COc1ccc(C(=O)Nc2ccc(F)c(F)c2)cc1NCc1cccc(C(=O)O)c1
134 to 135	COc1ccc2c(=O)nc(-c3cccc(CCC(=O)OC(C)(C)C)n3)sc2c1
> 300	O=C(O)c1cn(C2COC2)c2c(Cl)c(F)c(F)cc2c1=O
110 to 111	CC(C)c1ccc2c(-c3cc(C(C)(C)C)c(O)c(C(C)(C)C)c3)nn(CCO)c2n1
216 to 219	COc1cc(Cc2cnc(N)nc2N)c2c(c1OC)OC(C)C2 (centres undefined)
224 to 226	CCOc1ccc(Nc2ncc3c(n2)N(c2ccccc2)C(=O)N(c2c(Cl)cccc2Cl)C3)cc1
